Laboratory results published in patent publication US10829520B2, “Beta-hairpin peptidomimetics” (POLYPHOR AG, priority 2015, dated 2020).
Where two headings read alike, the source gives them in different places. Where a SMILES comes first, the peptide text is derived from it. Bridges are numbered along the chain shown (N, C = ends). Roman numbers before positions name the chains, in order. [ ]: non-standard residue; d: D form. Tle = CC(C)(C)[C@H](N)C(=O)O; Nle = CCCC[C@H](N)C(=O)O; Orn = NCCC[C@H](N)C(=O)O; Dab = NCC[C@H](N)C(=O)O; Dap = NC[C@H](N)C(=O)O

Columns and labels:
Format in all cases: cell-based
Escherichia coli 926415 = tested on: Escherichia coli 926415
[1] = tested on: Pseudomonas aeruginosa ATCC 27853; details: ATCC 27853
Method in brief: (§1)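 Peptide MICs were determined by CLSI broth microdilution in cation-adjusted Mueller-Hinton II broth with 0.002% polysorbate 80, inoculum approx. 10^6 CFU/mL. Two-fold serial dilutions of peptide were tested. MIC was the lowest concentration (μg/mL) with no visible growth after 18-20 hours at 35° C.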

[2] = tested on: Klebsiella pneumoniae 968733
[3] = tested on: Escherichia coli ATCC 25922; details: ATCC 25922
Method in brief: as §1

[4] = tested on: Acinetobacter baumannii 872842
[5] = tested on: Klebsiella pneumoniae SSI #3010; details: SSI #3010
Method in brief: as §1

[6] = tested on: Acinetobacter baumannii DSM 30008; details: DSM 30008
Method in brief: as §1

[7] = tested on: human red blood cells (hRBC); experiment: Hemolysis of human red blood cells; details: red cells of human, 1 h
Method in brief: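 Percent lysis of washed human erythrocytes after 1 h at 37° C. with 100 μg/mL peptide, calculated from OD540 of 8-fold diluted supernatant as a fraction of the 2.5% Triton X-100 value.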

[8] = clinical isolate, Mueller-Hinton II broth, P-80 0.002% present
[9] = clinical isolate, Mueller-Hinton II broth, measured in absence of P-80

Molecule | Escherichia coli 926415 MIC (Escherichia coli 926415; 926415) [µg/mL] | Pseudomonas aeruginosa ATCC 27853 MIC [1] [µg/mL] | Klebsiella pneumoniae 968733 MIC [2]; 968733 [µg/mL] | Escherichia coli ATCC 25922 MIC [3] [µg/mL] | Acinetobacter baumannii 872842 MIC [4]; 872842 [µg/mL] | Klebsiella pneumoniae SSI #3010 MIC [5] [µg/mL] | Acinetobacter baumannii DSM 30008 MIC [6] [µg/mL] | Hemolysis at 100 μg/mL [7]; 100 [%] | Hemolysis at 100 μg/mL ([7]; 100 μg/mL) [%] | Escherichia coli 926415 MIC (Escherichia coli 926415; [8]) [µg/mL] | Escherichia coli 926415 MIC (Escherichia coli 926415; [9]) [µg/mL] | Klebsiella pneumoniae 968733 MIC [2, 8] [µg/mL] | Klebsiella pneumoniae 968733 MIC [2, 9] [µg/mL] | Acinetobacter baumannii 872842 MIC [4, 8] [µg/mL] | Acinetobacter baumannii 872842 MIC [4, 9] [µg/mL]
CCCC[C@@H]1NC(=O)[C@@H]2CCCN2C(=O)[C@H]2CCCN2C(=O)[C@H](CO)NC(=O)[C@H](C)NC(=O)[C@H](C(C)(C)C)NC(=O)[C@H](CCN)NC(=O)[C@H](Cc2c[nH]c3ccccc23)NC(=O)[C@H](CCN)NC(=O)[C@@H](CCC(=O)N[C@H]2CCNC(=O)[C@H]([C@@H](C)O)NC(=O)[C@H](CCN)NC(=O)[C@H](CCN)NC(=O)[C@H](CC(C)C)NC(=O)[C@@H](Cc3ccccc3)NC(=O)[C@H](CCN)NC2=O)NC(=O)[C@H](CCCN)NC(=O)[C@H](CCN)NC(=O)[C@H](Cc2ccc(O)cc2)NC(=O)[C@H](CO)NC1=O [Ex. 1] (I: cyclo([Nle]SY[Dab][Orn][dE][Dab]W[Dab][Tle]AS[dP]P) / II: [Dab][Dab][dF]L[Dab][Dab]T; amide I:6-II:N; lactam II:1-II:C) | 1 | 0.5 | 4 | 0.25 | 2 | 0.5 | 0.125 | 1 |  |  |  |  |  |  | 
CCCC[C@@H]1NC(=O)[C@@H]2CCCN2C(=O)[C@H]2CCCN2C(=O)[C@H](CO)NC(=O)[C@H](C)NC(=O)[C@H](C(C)(C)C)NC(=O)[C@H](CCN)NC(=O)[C@H](Cc2c[nH]c3ccccc23)NC(=O)[C@H](CCN)NC(=O)[C@@H](CCC(=O)N[C@@H](CCN)C(=O)N[C@H]2CCNC(=O)[C@H]([C@@H](C)O)NC(=O)[C@H](CCN)NC(=O)[C@H](CCN)NC(=O)[C@H](CC(C)C)NC(=O)[C@@H](Cc3ccccc3)NC(=O)[C@H](CCN)NC2=O)NC(=O)[C@H](CCCN)NC(=O)[C@H](CCN)NC(=O)[C@H](Cc2ccc(O)cc2)NC(=O)[C@H](CO)NC1=O [Ex. 2] (I: cyclo([Nle]SY[Dab][Orn][dE][Dab]W[Dab][Tle]AS[dP]P) / II: [Dab][Dab][Dab][dF]L[Dab][Dab]T; amide I:6-II:N; lactam II:2-II:C) | 2 | 0.25 | 4 | 0.5 | 2 | 1 | 1 | 1 |  |  |  |  |  |  | 
CCCC[C@@H]1NC(=O)[C@@H]2CCCN2C(=O)[C@H]2CCCN2C(=O)[C@H](CO)NC(=O)[C@H](C)NC(=O)[C@H](C(C)(C)C)NC(=O)[C@H](CCN)NC(=O)[C@H](Cc2c[nH]c3ccccc23)NC(=O)[C@H](CCN)NC(=O)[C@H](CCC(=O)N[C@@H](CCN)C(=O)N[C@H]2CCNC(=O)[C@H]([C@@H](C)O)NC(=O)[C@H](CCN)NC(=O)[C@H](CCN)NC(=O)[C@H](CC(C)C)NC(=O)[C@@H](Cc3ccccc3)NC(=O)[C@H](CCN)NC2=O)NC(=O)[C@H](CCCN)NC(=O)[C@H](CCN)NC(=O)[C@H](Cc2ccc(O)cc2)NC(=O)[C@H](CO)NC1=O [Ex. 3] (I: cyclo([Nle]SY[Dab][Orn]E[Dab]W[Dab][Tle]AS[dP]P) / II: [Dab][Dab][Dab][dF]L[Dab][Dab]T; amide I:6-II:N; lactam II:2-II:C) | 0.25 | 0.25 | 1 | 0.5 | 2 | 0.5 | 1 | <1 |  |  |  |  |  |  | 
CCCC[C@@H]1NC(=O)[C@@H]2CCCN2C(=O)[C@H]2CCCN2C(=O)[C@H](CO)NC(=O)[C@H](C)NC(=O)[C@H](C(C)(C)C)NC(=O)[C@H](CCN)NC(=O)[C@H](Cc2c[nH]c3ccccc23)NC(=O)[C@H](CCN)NC(=O)[C@H](CC(=O)N[C@@H](CCN)C(=O)N[C@@H](CCN)C(=O)N[C@H]2CCNC(=O)[C@H]([C@@H](C)O)NC(=O)[C@H](CCN)NC(=O)[C@H](CCN)NC(=O)[C@H](CC(C)C)NC(=O)[C@@H](Cc3ccccc3)NC(=O)[C@H](CCN)NC2=O)NC(=O)[C@H](CCCN)NC(=O)[C@H](CCN)NC(=O)[C@H](Cc2ccc(O)cc2)NC(=O)[C@H](CO)NC1=O [Ex. 4] (I: cyclo([Nle]SY[Dab][Orn]D[Dab]W[Dab][Tle]AS[dP]P) / II: [Dab][Dab][Dab][Dab][dF]L[Dab][Dab]T; amide I:6-II:N; lactam II:3-II:C) | 1 | 0.25 | 8 | 1 | 2 | 1 | 1 | 1 |  |  |  |  |  |  | 
CCCC[C@@H]1NC(=O)[C@@H]2CCCN2C(=O)[C@H]2CCCN2C(=O)[C@H](CO)NC(=O)[C@H](C)NC(=O)[C@H](C(C)(C)C)NC(=O)[C@H](CCN)NC(=O)[C@H](Cc2c[nH]c3ccccc23)NC(=O)[C@H](CCN)NC(=O)[C@@H](CCC(=O)N[C@H](C(=O)N[C@@H](CCN)C(=O)N[C@H]2CCNC(=O)[C@H]([C@@H](C)O)NC(=O)[C@H](CCN)NC(=O)[C@H](CCN)NC(=O)[C@H](CC(C)C)NC(=O)[C@@H](Cc3ccccc3)NC(=O)[C@H](CCN)NC2=O)[C@@H](C)O)NC(=O)[C@H](CCCN)NC(=O)[C@H](CCN)NC(=O)[C@H](Cc2ccc(O)cc2)NC(=O)[C@H](CO)NC1=O [Ex. 5] (I: cyclo([Nle]SY[Dab][Orn][dE][Dab]W[Dab][Tle]AS[dP]P) / II: T[Dab][Dab][Dab][dF]L[Dab][Dab]T; amide I:6-II:N; lactam II:3-II:C) | 0.5 | 0.5 | 2 | 2 | 1 | 0.5 | 0.5 | 1 |  |  |  |  |  |  | 
CCCC[C@@H]1NC(=O)[C@@H]2CCCN2C(=O)[C@H]2CCCN2C(=O)[C@H]([C@@H](C)O)NC(=O)[C@H](CN)NC(=O)[C@H](C(C)(C)C)NC(=O)[C@@H](NC(=O)[C@H](Cc2c[nH]c3ccccc23)NC(C)=O)CSSC[C@@H](C(=O)N[C@@H](CCN)C(=O)N[C@H](C(=O)N[C@@H](CCN)C(=O)N[C@H]2CCNC(=O)[C@H]([C@@H](C)O)NC(=O)[C@H](CCN)NC(=O)[C@H](CCN)NC(=O)[C@H](CC(C)C)NC(=O)[C@@H](Cc3ccccc3)NC(=O)[C@H](CCN)NC2=O)[C@@H](C)O)NC(=O)[C@H](Cc2ccc(O)cc2)NC(=O)CNC1=O [Ex. 19] (Ac-WC[Tle][Dap]T[dP]P[Nle]GYC[Dab]T[Dab][Dab][Dab][dF]L[Dab][Dab]T; disulfide 2-11; lactam 15-C) | 0.25 | 1 | 0.75 |  | 0.75 | 1 | 0.25 |  | <1 |  |  |  |  |  | 
CCCC[C@@H]1NC(=O)[C@@H]2CCCN2C(=O)[C@H]2CCCN2C(=O)[C@H]([C@@H](C)O)NC(=O)[C@H](CN)NC(=O)[C@H](C(C)(C)C)NC(=O)[C@@H](NC(=O)[C@H](Cc2c[nH]c3ccccc23)NC(C)=O)CSSC[C@@H](C(=O)N[C@@H](CCN)C(=O)N[C@H](C(=O)N[C@@H](CCN)C(=O)N[C@H]2CCNC(=O)[C@H]([C@@H](C)O)NC(=O)[C@H](CCN)NC(=O)[C@H](CCN)NC(=O)[C@H](CC(C)C)NC(=O)[C@@H](Cc3ccccc3)NC(=O)[C@H](CCN)NC2=O)[C@@H](C)O)NC(=O)[C@H](Cc2ccc(O)cc2)NC(=O)CNC1=O [Ex. 116] (Ac-WC[Tle][Dap]T[dP]P[Nle]GYC[Dab]T[Dab][Dab][Dab][dF]L[Dab][Dab]T; disulfide 2-11; lactam 15-C) | 0.0625 | 1 | 0.5 |  | 0.125 | 0.25 | 0.25 |  | <1 |  |  |  |  |  | 
colistin [reference compound] |  |  |  |  |  |  |  |  |  | 8 | 16 | >8 | 16 | >8 | 64
